Experimental data taken from US20230339981A1, “KRAS G12D MODULATING COMPOUNDS” (priority 2022, published 2023).

Experiments:
[1] = system: GP2D (KRAS G12D) cells; assay: 2D cell viability assay (CellTiter-Glo); type: cell-based; settings: 4 days
Summary of the method: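 GP2D (KRAS G12D) cells, 1000/well in RPMI + 10% FBS, were plated onto compound (1:3 DMSO series) and grown 4 days at 37 °C, 5% CO2 in 2D. CellTiter-Glo luminescence was read; EC50 is the concentration giving 50% signal decrease, from sigmoidal fit.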

[2] = target: GDP-loaded KRAS G12D (Homo sapiens (Human), UniProt P01116, G12D); assay: KRAS G12D (GDP) biochemical assay (TR-FRET probe displacement); type: binding; settings: 2 hours
Summary of the method: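 Compound pre-incubated 30 min with GDP-loaded KRAS G12D in 50 mM Hepes pH 7.4, 150 mM NaCl, 5 mM MgCl2, 0.005% Tween-20, then Eu-streptavidin and TR-FRET probe added. After 2 h at room temperature, TR-FRET ratio read; IC50 is 50% ratio decrease, sigmoidal fit.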

Compound: C#Cc1c(F)ccc2cc(O)cc(-c3nc4c5c(nc(OC[C@@]67CCCN6[C@H](CN=[N+]=[N-])CC7)nc5c3F)N3C[C@H]5CC[C@H](N5)[C@H]3CO4)c12 [Example 36, 4-((5aS,6S,9R)-12-(((3S,7aS)-3-(azidomethyl)tetrahydro-1H-pyrrolizin-7a(5H)-yl)methoxy)-1-fluoro-5a,6,7,8,9,10-hexahydro-5H-4-oxa-3,10a,11,13,14-pentaaza-6,9-methanonaphtho[1,8-ab]heptalen-2-yl)-5-ethynyl-6-fluoronaphthalen-2-ol]
- EC50 ([1]; GP2d, 96 h): 4 nM
- IC50 [2]: 0.2 nM

Compound: C#Cc1c(F)ccc2cccc(-c3nc4c5c(nc(OC[C@@]67CCCN6[C@H](CF)CC7)nc5c3F)N3C[C@H]5CC[C@H](N5)[C@H]3CC[C@H]4C)c12 [Example 195, (4R,6aR,7S,10R)-2-(8-ethynyl-7-fluoronaphthalen-1-yl)-1-fluoro-13-(((3S,7aS)-3-(fluoromethyl)tetrahydro-1H-pyrrolizin-7a(5H)-yl)methoxy)-4-methyl-5,6,6a,7,8,9,10,11-octahydro-4H-3,11a,12,14,15-pentaaza-7,10-methanocyclohepta[4,5]cycloocta[1,2,3-de]naphthalene]
- EC50 ([1]; GP2d, 96 h): 1.5 nM
- IC50 [2]: 0.07 nM

Compound: C#Cc1c(F)ccc2cccc(-c3nc4c5c(nc(OC[C@@]67CCCN6[C@H](COc6cnnc(C(F)(F)F)c6)CC7)nc5c3F)N3C[C@H]5CC[C@H](N5)[C@H]3CCC4)c12 [Example 199, (6aR,7S,10R)-2-(8-ethynyl-7-fluoronaphthalen-1-yl)-1-fluoro-13-(((3S,7aS)-3-(((6-(trifluoromethyl)pyridazin-4-yl)oxy)methyl)tetrahydro-1H-pyrrolizin-7a(5H)-yl)methoxy)-5,6,6a,7,8,9,10,11-octahydro-4H-3,11a,12,14,15-pentaaza-7,10-methanocyclohepta[4,5]cycloocta[1,2,3-de]naphthalene]
- EC50 ([1]; GP2d, 96 h): 3.2 nM
- IC50 [2]: 0.07 nM

Compound: C#Cc1c(F)ccc2cc(O)cc(-c3nc4c5c(nc(OC[C@@]67CCCN6C[C@H](F)C7)nc5c3F)N3C[C@H]5CC[C@H](N5)[C@@H]3[C@H](CC)C4)c12 [Example 90, 4-((5R,5aS,6S,9R)-5-ethyl-1-fluoro-12-(((2R,7aS)-2-fluorotetrahydro-1H-pyrrolizin-7a(5H)-yl)methoxy)-4,5,5a,6,7,8,9,10-octahydro-3,10a,11,13,14-pentaaza-6,9-methanonaphtho[1,8-ab]heptalen-2-yl)-5-ethynyl-6-fluoronaphthalen-2-ol]
- EC50 ([1]; GP2d, 96 h): 1000 nM
- IC50 [2]: 100 nM

Compound: Oc1cc(-c2nc3c4c(nc(OC[C@@]56CCCN5C[C@H](F)C6)nc4c2F)N2C[C@H]4CC[C@H](N4)[C@H]2CC3)c2c(CC(F)(F)F)c(F)ccc2c1 [Example 50, 6-fluoro-4-((5aR,6S,9R)-1-fluoro-12-(((2R,7aS)-2-fluorotetrahydro-1H-pyrrolizin-7a(5H)-yl)methoxy)-4,5,5a,6,7,8,9,10-octahydro-3,10a,11,13,14-pentaaza-6,9-methanonaphtho[1,8-ab]heptalen-2-yl)-5-(2,2,2-trifluoroethyl)naphthalen-2-ol]
- EC50 ([1]; GP2d, 96 h): 24 nM
- IC50 [2]: 3 nM

Compound: C#Cc1c(F)ccc2cccc(-c3nc4c5c(nc(OC[C@@]67CCCN6C[C@@]6(CC6(F)F)C7)nc5c3F)N3C[C@H]5CC[C@H](N5)[C@H]3CC4)c12 [Example 121, (5aR,6S,9R)-12-(((1S,7a'S)-2,2-difluorodihydro-1′H,3′H-spiro[cyclopropane-1,2′-pyrrolizin]-7a′(5′H)-yl)methoxy)-2-(8-ethynyl-7-fluoronaphthalen-1-yl)-1-fluoro-4,5,5a,6,7,8,9,10-octahydro-3,10a,11,13,14-pentaaza-6,9-methanonaphtho[1,8-ab]heptalene]
- EC50 ([1]; GP2d, 96 h): 7 nM
- IC50 [2]: 0.3 nM

Compound: C#Cc1c(F)ccc2cccc(-c3nc4c5c(nc(OC[C@@]67CCCN6[C@H](COc6ncncc6C(F)F)CC7)nc5c3F)N3C[C@H]5CC[C@H](N5)[C@H]3CCC4)c12 [Example 206, (6aR,7S,10R)-13-(((3S,7aS)-3-(((5-(difluoromethyl)pyrimidin-4-yl)oxy)methyl)tetrahydro-1H-pyrrolizin-7a(5H)-yl)methoxy)-2-(8-ethynyl-7-fluoronaphthalen-1-yl)-1-fluoro-5,6,6a,7,8,9,10,11-octahydro-4H-3,11a,12,14,15-pentaaza-7,10-methanocyclohepta[4,5]cycloocta[1,2,3-de]naphthalene]
- EC50 ([1]; GP2d, 96 h): 1.6 nM
- IC50 [2]: 0.04 nM

Compound: Oc1cc(-c2nc3c4c(nc(OC[C@@]56CCCN5C[C@H](F)C6)nc4c2F)N2C[C@H]4CC[C@H](N4)[C@H]2CO3)c2c(C=C(F)F)c(F)ccc2c1 [Example 10, 5-(2,2-difluorovinyl)-6-fluoro-4-((5aS,6S,9R)-1-fluoro-12-(((2R,7aS)-2-fluorotetrahydro-1H-pyrrolizin-7a(5H)-yl)methoxy)-5a,6,7,8,9,10-hexahydro-5H-4-oxa-3,10a,11,13,14-pentaaza-6,9-methanonaphtho[1,8-ab]heptalen-2-yl)naphthalen-2-ol]
- EC50 ([1]; GP2d, 96 h): 250 nM
- IC50 [2]: 18 nM

Compound: Fc1cccc2c(-c3nc4c5c(nc(OC[C@@]67CCCN6C[C@H](F)C7)nc5c3F)N3C[C@H]5CC[C@H](N5)[C@H]3CO4)cccc12 [Example 31, (5aS,6S,9R)-1-fluoro-2-(5-fluoronaphthalen-1-yl)-12-(((2R,7aS)-2-fluorotetrahydro-1H-pyrrolizin-7a(5H)-yl)methoxy)-5a,6,7,8,9,10-hexahydro-5H-4-oxa-3,10a,11,13,14-pentaaza-6,9-methanonaphtho[1,8-ab]heptalene]
- EC50 ([1]; GP2d, 96 h): > 1000 nM
- IC50 [2]: 4900 nM

Compound: C#Cc1c(F)ccc2cccc(-c3nc4c5c(nc(OC[C@@]67CCCN6[C@H](COC(C(F)(F)F)(C(F)(F)F)C(F)(F)F)CC7)nc5c3F)N3C[C@H]5CC[C@H](N5)[C@@H]3[C@@H](C)C4)c12 [Example 83, (5S,5aS,6S,9R)-2-(8-ethynyl-7-fluoronaphthalen-1-yl)-1-fluoro-12-(((3S,7aS)-3-(((1,1,1,3,3,3-hexafluoro-2-(trifluoromethyl)propan-2-yl)oxy)methyl)tetrahydro-1H-pyrrolizin-7a(5H)-yl)methoxy)-5-methyl-4,5,5a,6,7,8,9,10-octahydro-3,10a,11,13,14-pentaaza-6,9-methanonaphtho[1,8-ab]heptalene]
- EC50 ([1]; GP2d, 96 h): 67.4 nM
- IC50 [2]: 3.2 nM

Compound: C#Cc1c(F)ccc2cc(N)cc(-c3nc4c5c(nc(OC[C@@]67CCCN6C[C@H](F)C7)nc5c3F)N3C[C@H]5CC[C@H](N5)[C@@H]3CC[C@H]4C)c12 [Example 194, 5-ethynyl-6-fluoro-4-((4R,6aS,7S,10R)-1-fluoro-13-(((2R,7aS)-2-fluorotetrahydro-1H-pyrrolizin-7a(5H)-yl)methoxy)-4-methyl-5,6,6a,7,8,9,10,11-octahydro-4H-3,11a,12,14,15-pentaaza-7,10-methanocyclohepta[4,5]cycloocta[1,2,3-de]naphthalen-2-yl)naphthalen-2-amine]
- EC50 ([1]; GP2d, 96 h): 70 nM
- IC50 [2]: 31 nM

Compound: Oc1cc(-c2nc3c4c(nc(OC[C@@]56CCCN5C[C@H](F)C6)nc4c2F)N2C[C@H]4CC[C@H](N4)[C@H]2CO3)c2cc(F)ccc2c1 [Example 8, 6-fluoro-4-((5aS,6S,9R)-1-fluoro-12-(((2R,7aS)-2-fluorotetrahydro-1H-pyrrolizin-7a(5H)-yl)methoxy)-5a,6,7,8,9,10-hexahydro-5H-4-oxa-3,10a,11,13,14-pentaaza-6,9-methanonaphtho[1,8-ab]heptalen-2-yl)naphthalen-2-ol]
- EC50 ([1]; GP2d, 96 h): 54 nM
- IC50 [2]: 2 nM

Compound: (6aR,7S,10R)-2-(8-ethynyl-7-fluoronaphthalen-1-yl)-1-fluoro-13-(((3S,7aS)-3-(((2-(trifluoromethyl)pyrimidin-4-yl)oxy)methyl)tetrahydro-1H-pyrrolizin-7a(5H)-yl)methoxy)-5,6,6a,7,8,9,10,11-octahydro-4H-3,11a,12,14,15-pentaaza-7,10-methanocyclohepta[4,5]cycloocta[1,2,3-de]naphthalene [Example 153]
- EC50 [1]: 4.3 nM
- IC50 [2]: 0.3 nM

Compound: C#Cc1c(F)ccc2cccc(-c3nc4c5c(nc(OCC6(CN7CCC(OC(F)(F)F)CC7)CC6)nc5c3F)N3C[C@H]5CC[C@H](N5)[C@H]3CC4)c12 [Example 107, (5aR,6S,9R)-2-(8-ethynyl-7-fluoronaphthalen-1-yl)-1-fluoro-12-((1-((4-(trifluoromethoxy)piperidin-1-yl)methyl)cyclopropyl)methoxy)-4,5,5a,6,7,8,9,10-octahydro-3,10a,11,13,14-pentaaza-6,9-methanonaphtho[1,8-ab]heptalene]
- EC50 ([1]; GP2d, 96 h): 460 nM
- IC50 [2]: 7.2 nM

Compound: C#Cc1c(F)ccc2cc(N)cc(-c3cc4c5c(nc(OC[C@@]67CCCN6C[C@H](F)C7)nc5c3F)N3C[C@H]5CC[C@H](N5)[C@@H]3[C@@H](C)C4)c12 [Example 193, 5-ethynyl-6-fluoro-4-((1S,4R,14S,14aS)-10-fluoro-8-(((2R,7aS)-2-fluorotetrahydro-1H-pyrrolizin-7a(5H)-yl)methoxy)-14-methyl-1,2,3,4,5,13,14,14a-octahydro-1,4-epiminoazepino[1′,2′:1,7]azepino[2,3,4-de]quinazolin-11-yl)naphthalen-2-amine]
- EC50 ([1]; GP2d, 96 h): 4.9 nM
- IC50 [2]: 0.05 nM

Compound: C#Cc1c(F)ccc2cccc(-c3nc4c5c(nc(OCC6(CN7CC[C@H](OC(F)(F)F)C7)CC6)nc5c3F)N3C[C@H]5CC[C@H](N5)[C@@H]3[C@@H](C)C4)c12 [Example 89, (5S,5aS,6S,9R)-2-(8-ethynyl-7-fluoronaphthalen-1-yl)-1-fluoro-5-methyl-12-((1-(((S)-3-(trifluoromethoxy)pyrrolidin-1-yl)methyl)cyclopropyl)methoxy)-4,5,5a,6,7,8,9,10-octahydro-3,10a,11,13,14-pentaaza-6,9-methanonaphtho[1,8-ab]heptalene]
- EC50 ([1]; GP2d, 96 h): 379 nM
- IC50 [2]: 50.9 nM
